# Experimental data taken from patent US4826872A, “Pharmaceutical composition for treatment of cataract” (Takeda Chemical Industries, Ltd., priority 1986, dated 1989).
# Where two headings read alike, the source gives them in different places.
# Tests used:
# [1] = system: rabbit lens epithelial cells; test: Test System I: MDA formed by auto-oxidation of docosahexaenoic acid in culture of lens epithelial cells; type: cell-based; settings: for Amount of MDA in culture medium: 24 hours, normal 1.5, control 29.2
# From the text: (§1) The inhibitory effect of 2-0-octadecylascorbic acid [compound (I-A)]on lens epithelial cells was studied.
# (§2) The lens epithelial cells were obtained from a male white rabbit weighing about 2 kg. Thus, after the […] was sacrificed, the eyeballs were immediately enucleated and subjected to the following aseptic procedures. The eyeballs were washed with Hank's balanced salt solution (pH 7.2), disinfected by 30-second immersion in 80% alcohol and re-washed with the same balanced salt solution. Then, using a small knife, the sclera was cut open from the posterior part of the bulb and the lens was taken out. The retina, vitreous body and the zonule of Zinn were removed. Then, the capsule was punctured and separated from the lens by means of forceps. (The epithelial cells came off with the capsule). The separated capsule was incubated in 0.01% EDTA-0.125% trypsin at 37° C. for 20 minutes After addition of the culture medium mentioned below, the mixture was centrifuged at 1,000 rpm for 2 minutes. By repeating this procedure, the epithelial cells were isolated. These cells were subjected to a few serial passages and used in the experiment. The culture medium was Eagle's medium (MEM) supplemented with 15% bovine fetal serum.
# (§3) The following two oxidation systems were used in the experiment: the system using the cytotoxic effect of lipid peroxidation products produced by auto-oxidation of docosahexaenoic acid as an indicator and the system using the cytotoxic effect of activated oxygen species produced by the xanthine-xanthine oxidase system as an indicator. Thus, the confluent cells in dishes were incubated in the following media for 24 hours and the lipid peroxides in the cultures were determined.
# (§4) (1) Normal: Cultured in MEM only
# (§5) (2) Control: Cultured in MEM supplemented
# with 250 μg/ml of docosahexaenoic
# (3) Drug: Cultured in MEM supplemented
# (§6) The thiobarbituric acid method of Yagi [Anal. Biochem., 95, 351-358 (1979)]was used for Test System I and the method of Nakashima [Chem. Pharm. Bull., 33. 5380-5384 (1985)]and Ohsawa [Anal. Sci., 1, 473-476 (1985)]using 1,3-diphenyl-2-thiobarbituric acid was employed with some modification for Test System II.
# [2] = system: rabbit lens epithelial cells; test: Test System II: MDA formed by activated oxygen species of the xanthine-xanthine oxidase system in culture of lens epithelial cells; type: cell-based; settings: for Amount of MDA in culture medium: 24 hours, normal 0.005, control 0.134
# From the text: as §1, §2, §3, §4, §5
# with 1 mM of xanthine and 0.01
# U/ml of xanthine oxidase
# (3) Drug: Cultured in MEM supplemented with
# 1 mM of xanthine and 0.01 U/ml of
# xanthine oxidase plus the drug.
# as §6
# [3] = system: cataract; settings: cited from earlier work
# [4] = system: lens (cataract after streptozocin administration); test: Slit-lamp observation of progress of cataract in streptozocin-treated rats (Experiment 1); type: in vivo, male S.D. strain rats; settings: vs control group, lens observed 7-35 days after streptozocin
# Method: Test procedure: 4-week-old male S.D. strain rats were purchased from Shizuoka Prefecture Animals Farmers' Cooperative, grouped by 10 animals after 5 days of preliminary feeding, and subjected to the test. […] To the vitamin E group, tocopherol acetate (50 mg/ml) was given orally in the same way at the dose of […] (400 mg/kg/day). To the control group, tap water was orally given at 200 μl/100 g.
# 0 No opacity is observed in the lens.
# I The surface of the lens is slightly opaque or small vacuoles appear on the equator.
# II Vacuoles increase in number and distribute over the cortex while fusing with each other.
# III Vacuoles distributed over the most part of the cortex begin to disappear.
# IV Most vacuoles have disappeared, and the whole cortex becomes opaque and translucent.
# V The nucleoplasm becomes opaque.
# VI The whole lens becomes white turbid.
# [5] = system: cataract; settings: instillation; many specialists doubtful; cited from earlier work
# [6] = cited from Mechanism of Cataract Formation in the Human Lens (1981)
smiles,measurement,setting,value
"Cc1c(C)c2c(c(C)c1O)CCC(C)(CCCC(C)CCCC(C)CCCC(C)C)O2 (racemic) [DL-α-Tocopherol, DL-α-tocopherol, reference compound]",Amount of MDA in culture medium,[1]; drug 125 μg/ml,4.2 ± 0.1 n mole/ml
same,Concentration for the same effect relative to compound (I-A),[1]; multiple of the concentration of compound (I-A),about 50 times
same,Amount of MDA in culture medium,[2]; drug 10 μg/ml,0.009 ± 0.011 n mole/ml
COc1cccc2c1C(=O)c1c(O)c3c(c(O)c1C2=O)C[C@@](O)(C(=O)CO)C[C@@H]3O[C@H]1C[C@H](N)[C@H](O)[C@H](C)O1 [Adriamycin],Induction of cataract,[3]; [6],induce cataract
"CCCCCCCCCCCCCCCCCCOC1=C(O)C(C(O)CO)OC1=O (stereo not shown) [Compound (I-A), 2-0-octadecylascorbic acid]",Delay of progress of cataract (lens stage by slit lamp),"[4]; oral, 100 mg/kg/day first two days then 40 mg/kg/day, Kruskal-Wallis H-test",delayed significantly the progress of cataract
same,Amount of MDA in culture medium,[1]; drug 2.5 μg/ml,6.5 ± 0.1 n mole/ml
same,Amount of MDA in culture medium,[1]; drug 5 μg/ml,5.8 ± 0.7 n mole/ml
same,Amount of MDA in culture medium,[1]; drug 10 μg/ml,10.3 ± 0.6 n mole/ml
same,Inhibition of formation of MDA (in words),[1]; higher concentrations,inhibitory effect was attenuated
same,Inhibition of formation of MDA (in words),[1]; low concentrations (<5 μg/ml),strongly inhibit the formation of MDA
same,Effect relative to DL-α-tocopherol (in words),[2],as effective as DL-α-tocopherol
same,Inhibition of MDA (in words),[2],substantially complete inhibition of MDA
same,Amount of MDA in culture medium,[2]; drug 2 μg/ml,0.024 ± 0.015 n mole/ml
same,Amount of MDA in culture medium,[2]; drug 10 μg/ml,0.016 ± 0.014 n mole/ml
same,Amount of MDA in culture medium,[2]; drug 50 μg/ml,0.001 ± 0.001 n mole/ml
Nc1nc[nH]n1 [amizole],Induction of cataract,[3]; in vivo,induce cataract
N[C@@H](CCC(=O)N[C@@H](CS)C(=O)NCC(=O)O)C(=O)O [glutathione],Effectiveness for treatment of cataract,[5],effective to some extent
CN(N=O)C(=O)N[C@@H](C=O)[C@@H](O)[C@H](O)[C@H](O)CO [streptozocin],Induction of cataract,[3]; [6],induce cataract
"CC(=O)Oc1c(C)c(C)c2c(c1C)CCC(C)(CCC[C@H](C)CCC[C@H](C)CCCC(C)C)O2 (stereo partly shown) [vitamin E, tocopherol acetate, reference compound]",Delay of progress of cataract (lens stage by slit lamp),[4]; oral tocopherol acetate 400 mg/kg/day,did not delay the progress of cataract
